{
  "source": "the supplement of paper PMC12463676",
  "about": "“Small-molecule dissolution of stress granules by redox modulation benefits ALS models” (Nature Chemical Biology, 2025);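 also: each temperature applied for 3 min, abundance score taken as mean log2 fold change at the two lowest temperatures, z-score obtained by mean subtraction and division by SD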",
  "data": [
    {"compound": "NC(=O)CCCCC1CCSS1 [lipoamide]", "test": "thermal stability z-score vs DMSO; higher = more thermally stabilized by treatment", "conditions": "HeLa; lipoamide concentration 100 µM; arsenate co-treatment: 1 mM arsenate 1 h", "experimental": "(§1)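 Cellular thermal proteome profiling in HeLa cells. Cells were treated with 100 µM lipoamide for 1 h, with or without 1 mM arsenate for a further 1 h, then heated to ten temperatures (37-66.3 °C), and soluble protein was quantified by TMT mass spectrometry relative to 0.1% DMSO controls. The thermal stability score (sum of log2 fold changes minus the abundance score) was transformed to a z-score; mean of n = 3 experiments.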", "values": [
      {"target": "R3HDM1 (UniProt Q15032)", "thermal stability z-score": 0.0761},
      {"target": "CANX (UniProt P27824)", "thermal stability z-score": -3.78},
      {"target": "PTPN2 (UniProt P17706)", "thermal stability z-score": 0.0491},
      {"target": "GRAMD3 (UniProt Q96HH9)", "thermal stability z-score": 0.155},
      {"target": "GLG1 (UniProt Q92896)", "sequence (Q92896 whole entry)": "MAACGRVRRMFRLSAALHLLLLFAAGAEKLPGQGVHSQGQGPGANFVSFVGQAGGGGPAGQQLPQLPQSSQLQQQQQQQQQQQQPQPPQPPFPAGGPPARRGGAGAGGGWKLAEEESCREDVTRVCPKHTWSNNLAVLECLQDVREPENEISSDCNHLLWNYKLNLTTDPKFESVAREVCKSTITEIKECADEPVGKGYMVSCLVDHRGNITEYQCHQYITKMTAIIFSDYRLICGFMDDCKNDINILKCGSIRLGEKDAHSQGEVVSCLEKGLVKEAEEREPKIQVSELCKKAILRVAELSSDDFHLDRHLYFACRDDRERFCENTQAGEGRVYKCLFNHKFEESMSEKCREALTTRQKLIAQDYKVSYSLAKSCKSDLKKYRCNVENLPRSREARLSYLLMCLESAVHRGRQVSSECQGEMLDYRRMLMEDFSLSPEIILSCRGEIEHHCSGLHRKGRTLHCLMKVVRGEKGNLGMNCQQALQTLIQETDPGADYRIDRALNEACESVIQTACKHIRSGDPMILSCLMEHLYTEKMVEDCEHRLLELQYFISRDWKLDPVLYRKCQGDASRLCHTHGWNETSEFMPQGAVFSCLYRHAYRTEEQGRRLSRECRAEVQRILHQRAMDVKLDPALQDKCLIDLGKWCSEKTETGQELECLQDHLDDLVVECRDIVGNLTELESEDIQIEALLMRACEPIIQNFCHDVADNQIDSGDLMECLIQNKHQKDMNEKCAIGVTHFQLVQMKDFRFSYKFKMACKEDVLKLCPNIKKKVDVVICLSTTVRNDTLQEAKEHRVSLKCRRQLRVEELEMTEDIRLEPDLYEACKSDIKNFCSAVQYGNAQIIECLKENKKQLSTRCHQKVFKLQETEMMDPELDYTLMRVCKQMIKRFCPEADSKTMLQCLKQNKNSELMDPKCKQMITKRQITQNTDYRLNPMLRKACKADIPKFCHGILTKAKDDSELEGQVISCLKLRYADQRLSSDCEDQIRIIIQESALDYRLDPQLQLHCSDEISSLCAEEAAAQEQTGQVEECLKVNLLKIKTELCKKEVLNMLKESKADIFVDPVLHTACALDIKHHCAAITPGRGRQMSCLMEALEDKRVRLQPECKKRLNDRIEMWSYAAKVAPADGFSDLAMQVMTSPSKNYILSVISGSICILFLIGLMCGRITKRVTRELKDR", "thermal stability z-score": -1.88},
      {"target": "LAMTOR3 (UniProt Q9UHA4)", "thermal stability z-score": 1.21},
      {"target": "CEP250 (UniProt Q9BV73)", "thermal stability z-score": 0.0869},
      {"target": "WDR74 (UniProt Q6RFH5)", "sequence (Q6RFH5 whole entry)": "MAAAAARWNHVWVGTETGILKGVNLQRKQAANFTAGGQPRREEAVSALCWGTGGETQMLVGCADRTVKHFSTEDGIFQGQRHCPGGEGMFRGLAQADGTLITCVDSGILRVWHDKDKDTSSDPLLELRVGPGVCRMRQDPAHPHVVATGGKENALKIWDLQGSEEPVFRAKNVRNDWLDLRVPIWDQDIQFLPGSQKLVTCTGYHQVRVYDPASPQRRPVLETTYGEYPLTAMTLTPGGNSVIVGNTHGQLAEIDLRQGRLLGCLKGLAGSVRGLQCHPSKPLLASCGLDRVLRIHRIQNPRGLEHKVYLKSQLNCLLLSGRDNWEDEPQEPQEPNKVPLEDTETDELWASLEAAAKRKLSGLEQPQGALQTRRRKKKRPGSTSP", "thermal stability z-score": -1.21},
      {"target": "LIN54 (UniProt Q6MZP7)", "thermal stability z-score": 0.0767},
      {"target": "PAK1IP1 (UniProt Q9NWT1)", "thermal stability z-score": 0.104},
      {"target": "GNL1 (UniProt P36915)", "sequence (P36915 whole entry)": "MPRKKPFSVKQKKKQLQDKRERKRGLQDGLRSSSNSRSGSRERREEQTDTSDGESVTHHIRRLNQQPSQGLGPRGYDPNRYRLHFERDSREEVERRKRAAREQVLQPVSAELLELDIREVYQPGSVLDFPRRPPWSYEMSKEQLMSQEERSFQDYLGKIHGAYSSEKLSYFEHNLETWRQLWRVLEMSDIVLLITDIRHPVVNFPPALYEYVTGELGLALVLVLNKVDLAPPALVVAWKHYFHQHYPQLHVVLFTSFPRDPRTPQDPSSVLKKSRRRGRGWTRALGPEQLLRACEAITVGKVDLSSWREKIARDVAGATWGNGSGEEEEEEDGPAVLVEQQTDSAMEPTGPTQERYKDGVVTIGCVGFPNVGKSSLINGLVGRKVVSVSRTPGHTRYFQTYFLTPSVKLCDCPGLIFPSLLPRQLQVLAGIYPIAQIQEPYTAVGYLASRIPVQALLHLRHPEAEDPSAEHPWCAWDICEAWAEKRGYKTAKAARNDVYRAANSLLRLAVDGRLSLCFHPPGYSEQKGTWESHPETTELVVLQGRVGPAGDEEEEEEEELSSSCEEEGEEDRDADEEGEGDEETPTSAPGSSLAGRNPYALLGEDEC", "thermal stability z-score": -0.411},
      {"target": "DMXL2 (UniProt Q8TDJ6)", "thermal stability z-score": -0.191},
      {"target": "HNRNPM (UniProt P52272)", "thermal stability z-score": -0.523},
      {"target": "SNX2 (UniProt O60749)", "thermal stability z-score": -0.0255},
      {"target": "PYCR1 (UniProt P32322)", "thermal stability z-score": -0.0172},
      {"target": "CADM1 (UniProt Q9BY67)", "thermal stability z-score": 0.995},
      {"target": "POM121C (UniProt A8CG34)", "thermal stability z-score": 1.24},
      {"target": "MTMR3 (UniProt Q13615)", "sequence (Q13615 whole entry)": "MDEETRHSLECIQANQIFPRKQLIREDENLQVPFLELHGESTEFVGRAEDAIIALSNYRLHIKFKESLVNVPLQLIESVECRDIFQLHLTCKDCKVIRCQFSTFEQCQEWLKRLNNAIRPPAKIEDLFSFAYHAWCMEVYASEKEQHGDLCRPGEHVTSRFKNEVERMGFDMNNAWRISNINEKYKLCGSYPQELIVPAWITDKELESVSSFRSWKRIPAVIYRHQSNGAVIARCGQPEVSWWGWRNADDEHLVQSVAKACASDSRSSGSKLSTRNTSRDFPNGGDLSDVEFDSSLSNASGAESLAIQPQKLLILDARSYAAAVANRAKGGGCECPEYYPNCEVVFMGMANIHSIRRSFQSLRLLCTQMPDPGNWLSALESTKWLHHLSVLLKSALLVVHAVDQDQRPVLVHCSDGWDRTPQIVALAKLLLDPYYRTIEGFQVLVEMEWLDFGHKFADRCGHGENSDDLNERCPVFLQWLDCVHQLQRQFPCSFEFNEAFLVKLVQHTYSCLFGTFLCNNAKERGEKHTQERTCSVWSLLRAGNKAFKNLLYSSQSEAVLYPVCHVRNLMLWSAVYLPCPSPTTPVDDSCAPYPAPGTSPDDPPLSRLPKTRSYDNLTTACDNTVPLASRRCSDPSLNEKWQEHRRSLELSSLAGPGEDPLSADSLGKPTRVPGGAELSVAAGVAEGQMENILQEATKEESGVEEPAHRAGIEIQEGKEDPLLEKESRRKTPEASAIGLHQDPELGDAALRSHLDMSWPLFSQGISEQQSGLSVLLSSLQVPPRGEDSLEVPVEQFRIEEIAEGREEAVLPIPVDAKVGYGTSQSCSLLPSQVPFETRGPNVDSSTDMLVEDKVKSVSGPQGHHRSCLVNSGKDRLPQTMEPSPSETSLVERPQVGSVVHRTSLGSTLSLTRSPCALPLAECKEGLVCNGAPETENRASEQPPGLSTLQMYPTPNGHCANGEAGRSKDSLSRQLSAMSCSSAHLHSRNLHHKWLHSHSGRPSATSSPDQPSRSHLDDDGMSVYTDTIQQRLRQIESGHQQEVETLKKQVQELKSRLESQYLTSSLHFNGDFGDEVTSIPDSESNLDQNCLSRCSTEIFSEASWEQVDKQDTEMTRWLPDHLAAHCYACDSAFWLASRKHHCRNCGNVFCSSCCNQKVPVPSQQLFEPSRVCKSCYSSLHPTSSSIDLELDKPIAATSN", "thermal stability z-score": -0.301},
      {"target": "ACSL3 (UniProt O95573)", "thermal stability z-score": -0.87},
      {"target": "EED (UniProt O75530)", "thermal stability z-score": 0.547},
      {"target": "ZDHHC6 (UniProt Q9H6R6)", "thermal stability z-score": 0.211},
      {"target": "AKT2 (UniProt P31751)", "thermal stability z-score": 0.466},
      {"target": "SAE1 (UniProt Q9UBE0)", "thermal stability z-score": -0.694},
      {"target": "CRK (UniProt P46108)", "thermal stability z-score": 0.951},
      {"target": "ROCK2 (UniProt O75116)", "sequence (O75116 whole entry, looked up)": "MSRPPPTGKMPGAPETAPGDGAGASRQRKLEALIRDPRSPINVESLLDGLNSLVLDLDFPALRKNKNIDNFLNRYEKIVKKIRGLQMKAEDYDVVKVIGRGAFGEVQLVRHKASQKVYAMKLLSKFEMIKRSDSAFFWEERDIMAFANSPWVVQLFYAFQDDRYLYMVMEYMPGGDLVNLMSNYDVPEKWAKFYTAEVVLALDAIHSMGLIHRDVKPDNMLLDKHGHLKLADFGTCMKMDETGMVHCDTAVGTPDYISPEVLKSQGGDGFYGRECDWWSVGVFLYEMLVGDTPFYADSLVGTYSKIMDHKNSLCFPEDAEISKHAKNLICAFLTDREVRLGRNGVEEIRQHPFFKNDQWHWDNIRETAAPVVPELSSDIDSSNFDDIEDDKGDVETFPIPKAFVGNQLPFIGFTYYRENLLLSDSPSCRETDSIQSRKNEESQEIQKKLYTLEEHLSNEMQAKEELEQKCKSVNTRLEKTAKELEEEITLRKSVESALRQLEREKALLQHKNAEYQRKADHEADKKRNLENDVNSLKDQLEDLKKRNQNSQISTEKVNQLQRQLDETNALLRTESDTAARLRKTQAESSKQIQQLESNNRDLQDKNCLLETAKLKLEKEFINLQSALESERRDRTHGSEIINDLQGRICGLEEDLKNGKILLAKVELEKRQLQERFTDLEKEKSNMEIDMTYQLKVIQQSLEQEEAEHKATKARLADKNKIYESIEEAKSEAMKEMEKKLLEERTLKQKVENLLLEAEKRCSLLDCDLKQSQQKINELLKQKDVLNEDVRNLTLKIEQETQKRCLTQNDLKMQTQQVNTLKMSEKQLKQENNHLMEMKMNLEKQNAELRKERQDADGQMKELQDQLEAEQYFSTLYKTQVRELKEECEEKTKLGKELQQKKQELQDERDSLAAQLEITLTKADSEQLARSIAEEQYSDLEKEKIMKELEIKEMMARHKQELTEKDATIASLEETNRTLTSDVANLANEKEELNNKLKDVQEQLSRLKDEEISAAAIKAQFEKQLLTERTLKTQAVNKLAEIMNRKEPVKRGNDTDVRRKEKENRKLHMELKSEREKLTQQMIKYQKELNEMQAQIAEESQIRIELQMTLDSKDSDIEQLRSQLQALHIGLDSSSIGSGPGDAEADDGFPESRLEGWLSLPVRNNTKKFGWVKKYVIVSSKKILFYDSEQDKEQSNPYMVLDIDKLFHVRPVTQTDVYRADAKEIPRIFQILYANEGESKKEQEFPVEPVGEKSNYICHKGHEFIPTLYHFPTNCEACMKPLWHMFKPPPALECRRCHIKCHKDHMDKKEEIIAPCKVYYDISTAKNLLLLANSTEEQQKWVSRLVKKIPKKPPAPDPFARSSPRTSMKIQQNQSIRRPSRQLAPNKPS", "thermal stability z-score": 0.504},
      {"target": "NIP7 (UniProt Q9Y221)", "thermal stability z-score": 0.337},
      {"target": "KLHL42 (UniProt Q9P2K6)", "thermal stability z-score": -0.26},
      {"target": "HSD17B11 (UniProt Q8NBQ5)", "sequence (Q8NBQ5 whole entry)": "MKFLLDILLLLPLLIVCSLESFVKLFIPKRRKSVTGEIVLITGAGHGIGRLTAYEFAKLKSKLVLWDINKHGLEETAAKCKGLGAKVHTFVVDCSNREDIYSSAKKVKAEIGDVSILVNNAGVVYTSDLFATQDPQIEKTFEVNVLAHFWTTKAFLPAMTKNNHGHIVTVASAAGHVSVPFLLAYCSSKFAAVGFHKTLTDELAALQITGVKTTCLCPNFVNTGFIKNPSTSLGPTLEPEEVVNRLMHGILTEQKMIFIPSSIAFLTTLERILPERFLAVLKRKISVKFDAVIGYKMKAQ", "thermal stability z-score": 0.563},
      {"target": "ACLY (UniProt P53396)", "thermal stability z-score": 0.0389},
      {"target": "SAP18 (UniProt O00422)", "thermal stability z-score": 0.465},
      {"target": "FBXO28 (UniProt Q9NVF7)", "thermal stability z-score": 0.0993},
      {"target": "TLK1 (UniProt Q9UKI8)", "thermal stability z-score": 0.193},
      {"target": "EXOSC6 (UniProt Q5RKV6)", "thermal stability z-score": 0.123},
      {"target": "DOPEY2 (UniProt Q9Y3R5)", "thermal stability z-score": 1.01},
      {"target": "HSPA13 (UniProt P48723)", "thermal stability z-score": -2.72},
      {"target": "NUDT15 (UniProt Q9NV35)", "thermal stability z-score": 0.686},
      {"target": "MECP2 (UniProt P51608)", "thermal stability z-score": -0.157},
      {"target": "TCEAL4 (UniProt Q96EI5)", "thermal stability z-score": 0.347},
      {"target": "ABHD17B (UniProt Q5VST6)", "thermal stability z-score": -0.119},
      {"target": "ATP11B (UniProt Q9Y2G3)", "thermal stability z-score": 0.0989},
      {"target": "TTL (UniProt Q8NG68)", "thermal stability z-score": -0.0821},
      {"target": "P4HTM (UniProt Q9NXG6)", "thermal stability z-score": 0.0884},
      {"target": "SSR1 (UniProt P43307)", "thermal stability z-score": -1.49},
      {"target": "ADNP (UniProt Q9H2P0)", "thermal stability z-score": -0.0133},
      {"target": "RTN4 (UniProt Q9NQC3)", "thermal stability z-score": 0.244},
      {"target": "MTIF3 (UniProt Q9H2K0)", "thermal stability z-score": 0.621},
      {"target": "DCTN2 (UniProt Q13561)", "thermal stability z-score": 0.321},
      {"target": "ADAR (UniProt P55265)", "thermal stability z-score": 0.419},
      {"target": "PLAUR (UniProt Q03405)", "thermal stability z-score": -1.4},
      {"target": "IRAK1 (UniProt P51617)", "thermal stability z-score": -0.153},
      {"target": "P4HB (UniProt P07237)", "thermal stability z-score": -0.224},
      {"target": "BSG (UniProt P35613)", "thermal stability z-score": 0.714},
      {"target": "TMOD1 (UniProt P28289)", "thermal stability z-score": 0.167},
      {"target": "NHSL1 (UniProt Q5SYE7)", "thermal stability z-score": 0.0509},
      {"target": "DCAF10 (UniProt Q5QP82)", "thermal stability z-score": 0.0128},
      {"target": "EIF5A (UniProt P63241)", "thermal stability z-score": -0.138},
      {"target": "COA3 (UniProt Q9Y2R0)", "thermal stability z-score": 0.463},
      {"target": "MME (UniProt P08473)", "thermal stability z-score": -0.46},
      {"target": "NUP85 (UniProt Q9BW27)", "thermal stability z-score": 0.16},
      {"target": "PPIL4 (UniProt Q8WUA2)", "thermal stability z-score": -0.441},
      {"target": "BDH2 (UniProt Q9BUT1)", "thermal stability z-score": -0.0305},
      {"target": "NEU1 (UniProt Q99519)", "thermal stability z-score": -0.363},
      {"target": "SUCLA2 (UniProt Q9P2R7)", "thermal stability z-score": 0.0341},
      {"target": "MTMR9 (UniProt Q96QG7)", "thermal stability z-score": -0.0303},
      {"target": "ZGPAT (UniProt Q8N5A5)", "thermal stability z-score": -0.303},
      {"target": "TAPT1 (UniProt Q6NXT6)", "thermal stability z-score": 0.869},
      {"target": "CEBPB (UniProt P17676)", "thermal stability z-score": -0.261},
      {"target": "CMC1 (UniProt Q7Z7K0)", "thermal stability z-score": 0.741},
      {"target": "MTA3 (UniProt Q9BTC8)", "thermal stability z-score": 0.106},
      {"target": "ATP5E (UniProt P56381)", "thermal stability z-score": 0.582},
      {"target": "IPO13 (UniProt O94829)", "thermal stability z-score": -0.112}
    ]},
    {"compound": "NC(=O)CCCCC1CCSS1 [lipoamide]", "test": "thermal stability z-score vs DMSO; higher = more thermally stabilized by treatment", "conditions": "HeLa; lipoamide concentration 100 µM; arsenate co-treatment: none", "experimental": "as §1", "values": [
      {"target": "R3HDM1 (UniProt Q15032)", "thermal stability z-score": 0.111},
      {"target": "CANX (UniProt P27824)", "thermal stability z-score": -3.12},
      {"target": "PTPN2 (UniProt P17706)", "thermal stability z-score": 0.308},
      {"target": "GRAMD3 (UniProt Q96HH9)", "thermal stability z-score": 0.0561},
      {"target": "GLG1 (UniProt Q92896)", "thermal stability z-score": -1.9},
      {"target": "LAMTOR3 (UniProt Q9UHA4)", "thermal stability z-score": 0.41},
      {"target": "CEP250 (UniProt Q9BV73)", "thermal stability z-score": 0.182},
      {"target": "WDR74 (UniProt Q6RFH5)", "thermal stability z-score": -0.713},
      {"target": "LIN54 (UniProt Q6MZP7)", "thermal stability z-score": -0.0219},
      {"target": "PAK1IP1 (UniProt Q9NWT1)", "thermal stability z-score": -0.651},
      {"target": "GNL1 (UniProt P36915)", "thermal stability z-score": -0.369},
      {"target": "DMXL2 (UniProt Q8TDJ6)", "thermal stability z-score": -0.105},
      {"target": "HNRNPM (UniProt P52272)", "thermal stability z-score": -0.135},
      {"target": "SNX2 (UniProt O60749)", "thermal stability z-score": 0.0641},
      {"target": "PYCR1 (UniProt P32322)", "thermal stability z-score": -0.299},
      {"target": "CADM1 (UniProt Q9BY67)", "thermal stability z-score": 0.905},
      {"target": "POM121C (UniProt A8CG34)", "thermal stability z-score": -0.678},
      {"target": "MTMR3 (UniProt Q13615)", "thermal stability z-score": -0.594},
      {"target": "ACSL3 (UniProt O95573)", "thermal stability z-score": -0.498},
      {"target": "EED (UniProt O75530)", "thermal stability z-score": 0.145},
      {"target": "ZDHHC6 (UniProt Q9H6R6)", "thermal stability z-score": -0.0578},
      {"target": "AKT2 (UniProt P31751)", "thermal stability z-score": -0.00865},
      {"target": "SAE1 (UniProt Q9UBE0)", "thermal stability z-score": -0.826},
      {"target": "CRK (UniProt P46108)", "thermal stability z-score": 0.233},
      {"target": "ROCK2 (UniProt O75116)", "thermal stability z-score": 0.462},
      {"target": "NIP7 (UniProt Q9Y221)", "thermal stability z-score": -0.869},
      {"target": "KLHL42 (UniProt Q9P2K6)", "thermal stability z-score": -0.0102},
      {"target": "HSD17B11 (UniProt Q8NBQ5)", "thermal stability z-score": 0.342},
      {"target": "ACLY (UniProt P53396)", "thermal stability z-score": -0.136},
      {"target": "SAP18 (UniProt O00422)", "thermal stability z-score": 0.0358},
      {"target": "FBXO28 (UniProt Q9NVF7)", "thermal stability z-score": -0.125},
      {"target": "TLK1 (UniProt Q9UKI8)", "thermal stability z-score": -0.983},
      {"target": "EXOSC6 (UniProt Q5RKV6)", "thermal stability z-score": 0.0946},
      {"target": "DOPEY2 (UniProt Q9Y3R5)", "thermal stability z-score": 0.402},
      {"target": "HSPA13 (UniProt P48723)", "thermal stability z-score": -2.35}
    ]}
  ]
}
